Patent US9980936B2, “BH4 antagonists and methods related thereto” (Emory University, priority 2014, dated 2018)
Read-outs that look alike come from different tables or passages of the source.

Experiments:
[1] = tested on: H460 cells; assay: H460 cells: Bcl2/BH3 immunofluorescence, Bcl2 expression, mitochondrial dysfunction; type: cell-based
[2] = tested on: H460 or DMS53 cells expressing Bcl2 shRNA transfected with AAAA Bcl2 mutant; assay: rescue of Bcl2-silenced cells with AAAA Bcl2 mutant; type: cell-based; details: 72 h
Text: Whether expression of exogenous Bcl2 can restore the sensitivity of Bcl2-silenced lung cancer cells to BDA-2 and whether the BDA-2/BH4 binding is important for such effect was examined. WT and BDA-2 binding deficient D10A/N11A/R12A/E13A (AAAA) Bcl2 mutant cDNA in pCIneo or vector-only control were transfected into H460 or DMS53 cells expressing Bcl2 shRNA. It has been reported that if the shRNA is directed to the 3′ UTR or 5′ UTR of the gene, the effect of the shRNA1 can be rescued by ectopically expressing the protein using the wild-type or mutant cDNA. Because Bcl2 shRNA1 targets the 5′UTR of endogenous Bcl2, the silencing effect of shRNA1 on Bcl2 expression could be rescued by transfection of exogenous WT or AAAA Bcl2 mutant. After transfection, cells were treated with BDA-2 or the BH3 mimetic ABT-199 at the indicated concentrations for 72 h. […] The apoptotic effect of BDA-2 on lung cancer cells requires its BH4 binding.

[3] = target: Bcl-XL (Homo sapiens, UniProt Q07817); assay: binding to other Bcl2 family members
Bcl-XL, sequence (Q07817 whole entry, species assumed): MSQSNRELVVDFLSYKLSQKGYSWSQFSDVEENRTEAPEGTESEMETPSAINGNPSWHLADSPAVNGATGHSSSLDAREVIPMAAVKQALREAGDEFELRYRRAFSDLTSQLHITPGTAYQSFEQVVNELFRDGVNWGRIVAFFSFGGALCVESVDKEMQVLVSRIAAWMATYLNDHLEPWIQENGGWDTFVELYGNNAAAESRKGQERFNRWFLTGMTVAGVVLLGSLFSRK

[4] = tested on: NSCLC cell lines H157, Calu-1, H358, H460, H1975 and SCLC cell lines DMS53, DMS153, H146, H69; assay: cell growth (SRB) and apoptosis (Annexin V/PI), lines with higher Bcl2; type: cell-based; details: relatively higher levels of Bcl2
Protocol: The effect of BDA-2 on cell growth and apoptosis was measured by SRB assay and Annexin V/PI binding, respectively, in both small cell lung cancer (SCLC) and non-small cell lung cancer (NSCLC) cell lines that express various levels of endogenous Bcl2.

CCN(CC)CC(O)CNc1ccc(NCC2CO2)c2c1C(=O)c1ccccc1C2=O (stereo not shown) [BDA-366, 1-((3-(diethylamino)-2-hydroxypropyl)amino)-4-((oxiran-2-ylmethyl)amino)anthracene-9,10-dione]
Bcl2 expression level [1]: did not significantly affect Bcl2 expression level | Bcl2 immunofluorescence with Bcl2/BH3-domain specific antibody [1]: enhanced significantly | mitochondrial dysfunction and apoptosis ([1]; MitoSOX red staining, Cyt c release, PARP cleavage): resulted in mitochondrial dysfunction | sensitivity of cells restored after expression of AAAA Bcl2 [2]: not | binding to Bcl-XL [3]: failed to bind | binding to Bcl-XL ([3]; listed as BDA-2): did not bind | sensitivity of cells [4]: more sensitive
